# From ChEMBL document CHEMBL1144428 (J Med Chem, 2005)
# Biological target: T1, Prostaglandin G/H synthase 1 (Mus musculus, UniProt P22437)
# T1 sequence (P22437 whole entry): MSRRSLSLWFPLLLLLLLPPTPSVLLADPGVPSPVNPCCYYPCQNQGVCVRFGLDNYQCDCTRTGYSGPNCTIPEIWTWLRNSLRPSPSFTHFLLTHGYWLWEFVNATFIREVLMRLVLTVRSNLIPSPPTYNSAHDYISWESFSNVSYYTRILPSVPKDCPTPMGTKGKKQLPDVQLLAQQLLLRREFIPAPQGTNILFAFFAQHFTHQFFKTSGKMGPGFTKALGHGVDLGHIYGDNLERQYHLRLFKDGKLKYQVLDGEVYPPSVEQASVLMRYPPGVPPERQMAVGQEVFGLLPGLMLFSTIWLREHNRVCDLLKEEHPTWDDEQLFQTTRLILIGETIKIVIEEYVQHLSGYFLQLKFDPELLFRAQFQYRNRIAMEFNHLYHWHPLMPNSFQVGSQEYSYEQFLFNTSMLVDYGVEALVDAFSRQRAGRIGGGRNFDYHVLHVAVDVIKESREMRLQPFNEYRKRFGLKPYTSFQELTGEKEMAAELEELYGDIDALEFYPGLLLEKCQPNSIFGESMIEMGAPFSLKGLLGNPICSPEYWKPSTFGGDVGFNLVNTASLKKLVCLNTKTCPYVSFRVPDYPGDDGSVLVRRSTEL
# Description: In vitro inhibitory activity against Prostaglandin G/H synthase 1 in murine J774 cells
row,SMILES,IC50 [µM]
1,CCOC(=O)Cc1cc(-c2ccc(S(C)(=O)=O)cc2)n(-c2ccc(C(F)(F)F)cc2)c1C,> 100
2,Cc1c(CC(=O)O)cc(-c2ccc(S(C)(=O)=O)cc2)n1-c1ccccc1,> 100
3,CCOC(=O)C(=O)c1cc(-c2ccc(S(C)(=O)=O)cc2)n(-c2ccc(C(F)(F)F)cc2)c1C,> 100
4,CCOC(=O)Cc1cc(-c2ccc(S(C)(=O)=O)cc2)n(-c2ccccc2)c1C,> 100
5,CCOC(=O)C(=O)c1cc(-c2ccc(S(C)(=O)=O)cc2)n(-c2ccccc2)c1C,> 100
6,CCOC(=O)C(=O)c1cc(-c2ccc(S(C)(=O)=O)cc2)n(-c2ccc(C)cc2)c1C,> 100
7,CCOC(=O)Cc1cc(-c2ccc(S(C)(=O)=O)cc2)n(-c2ccc(C)cc2)c1C,> 100
8,Cc1ccc(-n2c(-c3ccc(S(C)(=O)=O)cc3)cc(CC(=O)O)c2C)cc1,> 100
9,Cc1c(CC(=O)O)cc(-c2ccc(S(C)(=O)=O)cc2)n1-c1ccc(C(F)(F)F)cc1,> 100
